Experimental data as given in ChEMBL document CHEMBL1141074, “Pharmacophore-guided drug discovery investigations leading to bioactive 5-aminotetrahydropyrazolopyridines. Implications for the binding mode of heterocyclic dopamine D3 receptor agonists” (J Med Chem, 2005).

Tests used:
D(3) dopamine receptor [1] = biological target: T1, D(3) dopamine receptor (Homo sapiens, UniProt P35462); test: Binding affinity towards human dopamine receptor 3 expressed in Chinese hamster ovary cells using [3H]spiperone (0.5 nM) as radioligand; assay type: cell-based
T1 sequence (P35462 whole entry): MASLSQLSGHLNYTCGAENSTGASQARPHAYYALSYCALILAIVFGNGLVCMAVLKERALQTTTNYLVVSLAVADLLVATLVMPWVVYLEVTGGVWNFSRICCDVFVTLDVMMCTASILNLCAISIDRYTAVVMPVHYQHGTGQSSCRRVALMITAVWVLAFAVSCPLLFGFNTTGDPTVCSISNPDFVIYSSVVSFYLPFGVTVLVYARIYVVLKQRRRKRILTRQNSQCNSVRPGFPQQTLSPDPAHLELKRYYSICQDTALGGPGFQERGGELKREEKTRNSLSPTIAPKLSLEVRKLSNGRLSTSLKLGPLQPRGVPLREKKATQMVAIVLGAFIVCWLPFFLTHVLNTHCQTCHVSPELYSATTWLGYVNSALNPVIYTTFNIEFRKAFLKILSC

D(4) dopamine receptor [2] = biological target: T2, D(4) dopamine receptor (Homo sapiens, UniProt P21917); test: Binding affinity towards human dopamine receptor 4.4 expressed in Chinese hamster ovary cells using [3H]spiperone (0.5 nM) as radioligand; assay type: cell-based
T2 sequence (P21917 whole entry): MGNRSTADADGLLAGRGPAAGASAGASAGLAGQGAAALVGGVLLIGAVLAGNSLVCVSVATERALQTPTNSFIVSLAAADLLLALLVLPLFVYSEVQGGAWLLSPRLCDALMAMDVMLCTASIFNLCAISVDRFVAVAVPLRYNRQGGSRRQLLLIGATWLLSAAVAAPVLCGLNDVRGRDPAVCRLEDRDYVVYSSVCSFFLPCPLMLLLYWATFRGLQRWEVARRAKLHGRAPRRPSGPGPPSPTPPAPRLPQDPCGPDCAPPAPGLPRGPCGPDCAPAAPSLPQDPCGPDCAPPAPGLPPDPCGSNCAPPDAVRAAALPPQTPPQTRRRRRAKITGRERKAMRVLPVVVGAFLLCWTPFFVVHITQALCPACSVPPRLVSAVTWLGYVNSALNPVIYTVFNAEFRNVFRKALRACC

D(2) dopamine receptor [3] = biological target: T3, D(2) dopamine receptor (Homo sapiens, UniProt P14416); test: Binding affinity towards human dopamine receptor 2 (short) expressed in Chinese hamster ovary cells using [3H]spiperone (0.5 nM) as radioligand; assay type: cell-based
T3 sequence (P14416 whole entry): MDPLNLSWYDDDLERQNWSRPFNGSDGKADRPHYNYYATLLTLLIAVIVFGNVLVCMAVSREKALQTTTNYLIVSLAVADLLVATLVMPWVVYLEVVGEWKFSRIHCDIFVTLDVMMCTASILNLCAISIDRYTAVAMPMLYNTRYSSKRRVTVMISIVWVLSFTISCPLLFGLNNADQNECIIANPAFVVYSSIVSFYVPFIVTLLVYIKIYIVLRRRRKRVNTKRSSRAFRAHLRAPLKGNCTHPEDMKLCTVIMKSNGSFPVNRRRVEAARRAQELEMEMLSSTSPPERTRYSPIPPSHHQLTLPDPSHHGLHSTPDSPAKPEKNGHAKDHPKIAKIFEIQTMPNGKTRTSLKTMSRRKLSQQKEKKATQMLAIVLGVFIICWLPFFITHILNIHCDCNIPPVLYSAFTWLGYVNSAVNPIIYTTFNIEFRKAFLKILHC

D(2) dopamine receptor [4] = biological target: T3, D(2) dopamine receptor; test: Binding affinity towards human dopamine receptor 2 (long) expressed in Chinese hamster ovary cells using [3H]spiperone (0.5 nM) as radioligand; assay type: cell-based
D(1A) dopamine receptor [5] = biological target: T4, D(1A) dopamine receptor (Sus scrofa, UniProt P50130); test: Binding affinity towards porcine dopamine receptor 1 against radioligand [3H]-SCH- 23390
T4 sequence (P50130 whole entry): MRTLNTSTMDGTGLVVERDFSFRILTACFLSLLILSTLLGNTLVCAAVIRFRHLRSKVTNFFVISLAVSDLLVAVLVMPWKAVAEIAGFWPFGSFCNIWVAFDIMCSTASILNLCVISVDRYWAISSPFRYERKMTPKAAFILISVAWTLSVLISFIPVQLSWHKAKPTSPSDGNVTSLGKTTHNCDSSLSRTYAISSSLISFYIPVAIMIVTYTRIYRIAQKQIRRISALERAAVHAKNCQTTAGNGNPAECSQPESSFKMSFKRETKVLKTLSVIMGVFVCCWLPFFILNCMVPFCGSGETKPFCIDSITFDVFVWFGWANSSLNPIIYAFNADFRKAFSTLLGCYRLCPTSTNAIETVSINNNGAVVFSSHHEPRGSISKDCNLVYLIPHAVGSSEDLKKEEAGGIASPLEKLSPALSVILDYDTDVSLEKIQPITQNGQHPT

D(3) dopamine receptor [6] = biological target: T1, D(3) dopamine receptor; test: biochemical
D(3) dopamine receptor [7] = biological target: T1, D(3) dopamine receptor; test: Effective concentration against dopamine D3 receptor
D(2) dopamine receptor [8] = biological target: T3, D(2) dopamine receptor; test: Low binding affinity towards human dopamine receptor 2 (long) expressed in Chinese hamster ovary cells using [3H]spiperone (0.5 nM) as radioligand; assay type: cell-based
D(3) dopamine receptor [9] = biological target: T1, D(3) dopamine receptor; test: biochemical; remark: listed apart in the source
D(2) dopamine receptor [10] = biological target: T3, D(2) dopamine receptor; test: biochemical; assay type: cell-based, ovary
D(4) dopamine receptor [11] = biological target: T2, D(4) dopamine receptor; test: biochemical; assay type: cell-based, ovary
D(2) dopamine receptor [12] = biological target: T3, D(2) dopamine receptor; test: Low binding affinity towards human dopamine receptor 2 (short) expressed in Chinese hamster ovary cells using [3H]spiperone (0.5 nM) as radioligand; assay type: cell-based
D(2) dopamine receptor [13] = biological target: T3, D(2) dopamine receptor; test: High binding affinity towards human dopamine receptor 2 (long) expressed in Chinese hamster ovary cells using [3H]spiperone (0.5 nM) as radioligand; assay type: cell-based
D(1A) dopamine receptor [14] = biological target: T4, D(1A) dopamine receptor; test: Binding affinity (low) towards porcine dopamine receptor 1 by using [3H]-SCH- 23390 (0.3 nM) as radioligand
D(4) dopamine receptor [15] = biological target: T2, D(4) dopamine receptor; test: biochemical; assay type: cell-based, ovary; remark: listed apart in the source
D(3) dopamine receptor [16] = biological target: T1, D(3) dopamine receptor; test: Binding affinity towards dopamine D3 receptor
D(1A) dopamine receptor [17] = biological target: T4, D(1A) dopamine receptor; test: Binding affinity (low) towards porcine dopamine receptor 1 against radioligand [3H]-SCH- 23390

| Compound | Ki (D(3) dopamine receptor [1]) | Ki (D(4) dopamine receptor [2]) | Ki (D(2) dopamine receptor [3]) | Ki (D(2) dopamine receptor [4]) | Ki (D(1A) dopamine receptor [5]) | Ki (D(3) dopamine receptor [6]) | EC50 (D(3) dopamine receptor [7]) | Ki (D(2) dopamine receptor [8]) | Ki (D(3) dopamine receptor [9]) | Ki (D(2) dopamine receptor [10]) | Ki (D(4) dopamine receptor [11]) | Ki (D(2) dopamine receptor [12]) | Ki (D(2) dopamine receptor [13]) | Ki (D(1A) dopamine receptor [14]) | Ki (D(4) dopamine receptor [15]) | pKi (D(3) dopamine receptor [16]) | Ki (D(1A) dopamine receptor [17]) |
| --- | --- | --- | --- | --- | --- | --- | --- | --- | --- | --- | --- | --- | --- | --- | --- | --- | --- |
| CCCN(CCC)C1CCn2ncc(C(=O)OC)c2C1 (stereo not given) | 17 µM | > 20 µM | > 20 µM | > 20 µM | > 20 µM | – | – | – | – | – | – | – | – | – | – | – | – |
| CCCN(CCC)[C@@H]1CCn2nccc2C1 | 2.7 µM | 13 µM | > 20 µM | > 20 µM | > 20 µM | – | – | – | – | – | – | – | – | – | – | – | – |
| CCCN(CCC)C1CCn2nccc2C1 (racemic) | – | – | – | – | – | 0.0067 µM | – | 18 µM | 0.2 µM | 0.16 µM | 1.6 µM | 8.5 µM | 0.22 µM | – | 0.058 µM | – | > 20 µM |

Other lines, results leading:

| Ki (D(3) dopamine receptor [1]) | Ki (D(4) dopamine receptor [2]) | Ki (D(2) dopamine receptor [3]) | Ki (D(2) dopamine receptor [4]) | Ki (D(1A) dopamine receptor [5]) | Ki (D(3) dopamine receptor [6]) | EC50 (D(3) dopamine receptor [7]) | Ki (D(2) dopamine receptor [8]) | Ki (D(3) dopamine receptor [9]) | Ki (D(2) dopamine receptor [10]) | Ki (D(4) dopamine receptor [11]) | Ki (D(2) dopamine receptor [12]) | Ki (D(2) dopamine receptor [13]) | Ki (D(1A) dopamine receptor [14]) | Ki (D(4) dopamine receptor [15]) | pKi (D(3) dopamine receptor [16]) | Ki (D(1A) dopamine receptor [17]) | Compound |
| --- | --- | --- | --- | --- | --- | --- | --- | --- | --- | --- | --- | --- | --- | --- | --- | --- | --- |
| 4 µM | 16 µM | > 20 µM | > 20 µM | > 20 µM | – | – | – | – | – | – | – | – | – | – | – | – | CCCN(CCC)C1CCn2ncc(CO)c2C1 (stereo not given) |
| 12 µM | 90 µM | > 100 µM | > 100 µM | > 20 µM | – | – | – | – | – | – | – | – | – | – | – | – | CCCNC1CCn2ncc(C(=O)OC)c2C1 (stereo not given) |
| – | – | – | – | – | 0.0061 µM | 0.0045 µM | > 20 µM | 0.23 µM | 0.21 µM | 6.4 µM | 12 µM | 0.12 µM | > 20 µM | 0.2 µM | – | – | CCCN(CCC)C1CCn2ncc(Cl)c2C1 (stereo not given) |
| – | – | – | – | – | 0.004 µM | 0.0034 µM | 15 µM | 0.11 µM | 0.25 µM | 1.7 µM | 10 µM | 0.18 µM | > 20 µM | 0.058 µM | 8.4 | – | CCCN(CCC)[C@H]1CCn2nccc2C1 |
| 12 µM | 14 µM | 4 µM | 5.9 µM | > 20 µM | – | – | – | – | – | – | – | – | – | – | – | – | CCCN(CCC)C1CCn2ncc(C=O)c2C1 (stereo not given) |
